Measurements from US10000473B2, “Indazole derivatives useful as glucagon receptor antagonists” (Janssen Pharmaceutica NV, priority 2016, dated 2018).

Target: T1, human GCGR (Homo sapiens, UniProt P47871)
T1 construct: expressed in transfected cells; host or cells: HEK293 (hGluc-1HEK), pcDNA3.1, G418 selection
Assay: Cellular functional assay, cAMP readout (glucagon-stimulated cAMP, LANCE TR-FRET)
Format: cell-based
Settings: HEK293 cells stably expressing full-length human GCGR; glucagon 100 pM; IC50 converted to Ki; read-out: Inhibition of cAMP Ki
Method: IC50 Values in Cellular Functional Assays: cAMP Readout
Full-length human GCGR (Accession Number: NM000160) subcloned into pcDNA3.1 was stably transfected into HEK293 cells (hGluc-1HEK) and maintained under G418 selection (500 μg/mL). Cell cultures were maintained in DMEM/F12 media supplemented with 10% FBS and 1% GlutaMax™ Supplement (Available from ThermoFisher Scientific, catalog #35050061). Glucagon stimulated cAMP was quantified using LANCE technology as per manufacturer instructions. On the day of the experiment, spent media was removed and cells were washed with Hank's Buffered Saline solution (HBSS), and cells harvested with non-enzymatic cell dissociation solution, then washed once with HBSS. Cells were re-suspended in stimulation buffer at a concentration of 0.83×10^6 cells/ml and cAMP detection antibody was added. 6 μl/well of this solution was then dispensed in a 384 well plate (cell density 5000 cells/well). Test compound was serially diluted in DMSO and 50 nl were dispensed on top of the cell solution and allowed to incubate for 30 minutes. 6 μl of a 2× glucagon solution (final concentration in assay 100 pM) was then added and the reaction was terminated after 5 minutes with the addition of detection mix. The resulting mixture was incubated, protected from light for 1.5 h. cAMP levels were quantified by TR-FRET in an EnVision instrument against a known standard. IC50's were generated by using a non-linear regression macro driven in Excel and converted to Ki values.

T1 sequence (P47871 26-477): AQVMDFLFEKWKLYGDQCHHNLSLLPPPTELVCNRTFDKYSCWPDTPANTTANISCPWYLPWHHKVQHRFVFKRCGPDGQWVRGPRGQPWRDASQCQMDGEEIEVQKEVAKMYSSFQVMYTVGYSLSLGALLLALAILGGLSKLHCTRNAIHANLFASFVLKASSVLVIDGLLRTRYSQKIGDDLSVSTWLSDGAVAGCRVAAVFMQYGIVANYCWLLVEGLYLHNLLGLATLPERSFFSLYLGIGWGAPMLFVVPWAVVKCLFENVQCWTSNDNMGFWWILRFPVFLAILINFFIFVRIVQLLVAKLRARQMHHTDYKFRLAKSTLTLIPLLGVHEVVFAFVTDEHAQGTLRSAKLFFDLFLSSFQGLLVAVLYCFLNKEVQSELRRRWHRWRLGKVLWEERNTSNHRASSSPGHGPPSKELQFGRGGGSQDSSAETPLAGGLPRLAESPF

Row | Structure (SMILES) | Ki [nM]
1 | CCCCCCC(c1ccc(C(=O)NCCC(=O)O)cc1)n1ncc2cc(-c3ccc(C(C)(C)C)cc3)ccc21 (stereo not drawn) [compound 128] | 199
2 | CC(C)CC(c1ccc(C(=O)NCCC(=O)O)nc1)n1ncc2cc(-c3cc(Cl)cc(Cl)c3)ccc21 (stereo not drawn) [compound 119] | > 2600
3 | CC(c1ccc(C(=O)NCCC(=O)O)cc1)n1ncc2cc(-c3ccc(C(C)(C)C)cc3)ccc21 (stereo not drawn) [Compound #68, 3-(4-(1-(5-(4-(tert-Butyl)phenyl)-1H-indazol-1-yl)ethyl)benzamido) propanoic acid] | 2800
4 | CC(C)CC(c1ccc(C(=O)NCCC(=O)O)cc1)n1cc2cc(-c3cnc4ccccc4c3)ccc2n1 (stereo not drawn) [compound 117] | 1000
5 | O=C(O)CCNC(=O)c1ccc(C(CCCC(F)(F)F)n2ncc3cc(-c4ccc(C(F)(F)F)cc4)ccc32)cc1 (stereo not drawn) [compound 234] | 275
6 | O=C(O)CCNC(=O)c1ccc(C(CCC(F)(F)F)n2ncc3cc(-c4ccc(OC(F)(F)F)cc4)ccc32)cc1 (stereo not drawn) [Compound #76, 3-[[4-[4,4,4-Trifluoro-1-[5-[4-(trifluoromethoxy)phenyl]indazol-1-yl]butyl]benzoyl]amino]propanoic acid] | 700
7 | Cc1cc(Cl)ccc1-c1ccc2nn(C(CC(C)C)c3ccc(C(=O)NCCC(=O)O)cc3)cc2c1 (stereo not drawn) [Compound #168] | 191
8 | Cc1c(-c2ccc(Cl)cc2Cl)ccc2c1cnn2C(CC(C)C)c1ccc(C(=O)NCCC(=O)O)cc1 (stereo not drawn) [Compound #127, 3-(4-(1-(5-(2,4-Dichlorophenyl)-4-methyl-1H-indazol-1-yl)-3-methylbutyl)benzamido)propanoic acid] | 310
9 | Cc1cc(Cl)ccc1-c1ccc2c(cnn2C(CC2CCCCC2)c2ccc(C(=O)NCCC(=O)O)cc2)c1 (stereo not drawn) [compound 194] | 210
10 | CC(C)CC(c1ccc(C(=O)NCCC(=O)O)cc1)n1ncc2cc(-c3cnn(C)c3)ccc21 (stereo not drawn) [compound 164] | > 5200
11 | Cc1ccc2cc(-c3ccc4c(cnn4C(CC(C)C)c4ccc(C(=O)NCCC(=O)O)cc4)c3)sc2c1 (stereo not drawn) [compound 62] | 230
12 | Cc1cc(Cl)ccc1-c1ccc2c(cnn2C(CCC(F)(F)F)c2ccc(C(=O)NCCC(=O)O)cc2)c1 (stereo not drawn) [Compound #40, 3-[[4-[1-[5-(4-Chloro-2-methyl-phenyl)indazol-1-yl]-4,4,4-trifluorobutyl]benzoyl]amino]propanoic acid] | 490
13 | CC(C)CC(c1ccc(C(=O)NCCC(=O)O)nc1)n1ncc2cc(-c3ccc(Cl)cc3Cl)ccc21 (stereo not drawn) [Compound #113, 3-(5-(1-(5-(2,4-Dichlorophenyl)-1H-indazol-1-yl)-3-methylbutyl)picolinamido)propanoic acid] | 420
14 | Cc1cc2c(cnn2[C@H](CC(C)C)c2ccc(C(=O)NCCC(=O)O)cc2)cc1-c1ccc(C(F)(F)F)cc1 [Compound #229, 3-[[4-[(1R)-3-Methyl-1-[6-methyl-5-[4-(trifluoromethyl)phenyl]indazol-1-yl]butyl]benzoyl]amino]propanoic acid] | 1550
15 | CC(C)CC(c1ccc(C(=O)NCCC(=O)O)cc1)n1ncc2cc(-c3ccc4ncccc4c3)ccc21 (stereo not drawn) [Compound #7] | 800
16 | O=C(O)CCNC(=O)c1ccc(C(CCC(F)(F)F)n2ncc3cc(-c4cc5ccccc5o4)ccc32)cc1 (stereo not drawn) [Compound #11, 3-[[4-[1-[5-(Benzofuran-2-yl)indazol-1-yl]-4,4,4-trifluorobutyl]benzoyl]amino]propanoic acid] | 175

Continued by falling Ki, values first:

Row | Ki [nM] | Structure (SMILES)
17 | 175 | CC(C)CC(c1ccc(C(=O)NCCC(=O)O)nc1)n1ncc2cc(-c3ccc(C(F)(F)F)cc3Cl)ccc21 (stereo not drawn) [Compound #43, 3-(5-(1-(5-(2-Chloro-4-(trifluoromethyl)phenyl)-1H-indazol-1-yl)-3-methylbutyl)picolinamido)propanoic acid]
18 | 165 | O=C(O)CCNC(=O)c1ccc(C(CC2CCCC2)n2cc3cc(-c4ccc(C(F)(F)F)cc4)ccc3n2)cn1 (stereo not drawn) [compound 188]
19 | 160 | Cc1cc(C(F)(F)F)ccc1-c1cc2cnn(C(CC(C)C)c3ccc(C(=O)NCCC(=O)O)nc3)c2cc1Cl (stereo not drawn) [Compound #146, 3-[[5-[1-[6-Chloro-5-[2-methyl-4-(trifluoromethyl)phenyl]indazol-1-yl]-3-methyl-butyl]pridine-2-carbonyl]amino]propanoic acid]
20 | 150 | CC(C)CC(c1ccc(C(=O)NCCC(=O)O)cc1)n1cc2cc(-c3ccc(C(F)(F)F)cc3Cl)ccc2n1 (stereo not drawn) [Compound #225, 3-(4-(1-(5-(2-Chloro-4-(trifluoromethyl)phenyl)-2H-indazol-2-yl)-3-methylbutyl)benzamido)propanoic acid]
21 | 135 | CC(C)CC(c1ccc(C(=O)NCCC(=O)O)cc1)n1ncc2cc(-c3cc4ccccc4o3)ccc21 (stereo not drawn) [compound 77]
22 | 135 | O=C(O)CCNC(=O)c1ccc(C(C2CCCCC2)n2cc3cc(-c4ccc(C(F)(F)F)cc4)ccc3n2)cc1 (stereo not drawn) [compound 136]
23 | 125 | O=C(O)CCNC(=O)c1ccc(C(CCC(F)(F)F)n2cc3cc(-c4cc5ccccc5s4)ccc3n2)cc1 (stereo not drawn) [Compound #122, 3-[[4-[1-[5-(Benzothiophen-2-yl)indazol-2-yl]-4,4,4-trifluorobutyl]benzoyl]amino]propanoic acid]
24 | 92 | Cc1c(-c2ccc(C(C)(C)C)cc2)ccc2c1cnn2C(CC(C)C)c1ccc(C(=O)NCCC(=O)O)cc1 (stereo not drawn) [Compound #47, 3-(4-(1-(5-(4-(tert-Butyl)phenyl)-4-methyl-1H-indazol-1-yl)-3-methylbutyl)benzamido)propanoic acid]
25 | 92 | Cc1cc(C(F)(F)F)ccc1-c1ccc2c(cnn2C(CC(C)C)c2ccc(C(=O)NCCC(=O)O)cc2)c1C (stereo not drawn) [Compound #21, 3-(4-(3-Methyl-1-(4-methyl-5-(2-methyl-4-(trifluoromethyl)phenyl)-1H-indazol-1-yl)butyl)benzamido)propanoic acid]
26 | 85 | O=C(O)CCNC(=O)c1ccc(C(CC2CCC2)n2cc3cc(-c4ccc(C(F)(F)F)cc4)ccc3n2)cc1 (stereo not drawn) [compound 211]
27 | 75 | COc1c(-c2ccc(C(F)(F)F)cc2C)ccc2c1cnn2C(CC(C)C)c1ccc(C(=O)NCCC(=O)O)nc1 (stereo not drawn) [Compound #213, 3-(5-(1-(4-Methoxy-5-(2-methyl-4-(trifluoromethyl)phenyl)-1H-indazol-1-yl)-3-methylbutyl)picolinamido)propanoic acid]
28 | 57 | Cc1ccc(-c2ccc3nn(C(CC(C)C)c4ccc(C(=O)NCCC(=O)O)cc4)cc3c2C)c(Cl)c1 (stereo not drawn) [Compound #148, 3-(4-(1-(5-(2-Chloro-4-methylphenyl)-4-methyl-2H-indazol-2-yl)-3-methylbutyl)benzamido)propanoic acid]
29 | 52 | Cc1cc2nn(C(CC(C)C)c3ccc(C(=O)NCCC(=O)O)cc3)cc2cc1-c1ccc(C(F)(F)F)cc1Cl (stereo not drawn) [Compound #95, 3-[[4-[1-[5-[2-Chloro-4-(trifluoromethyl)phenyl]-6-methyl-indazol-2-yl]-3-methyl-butyl]benzoyl]amino]propanoic acid]
30 | 52 | CC(C)(C)CC(c1ccc(C(=O)NCCC(=O)O)cc1)n1cc2cc(-c3ccc(C(F)(F)F)cc3)ccc2n1 (stereo not drawn) [compound 61]
31 | 50 | Cc1cc(C(F)(F)F)ccc1-c1cc2cn(C(CC(C)C)c3ccc(C(=O)NCCC(=O)O)nc3)nc2cc1Cl (stereo not drawn) [Compound #176, 3-[[5-[1-[6-Chloro-5-[2-methyl-4-(trifluoromethyl)phenyl]indazol-2-yl]-3-methyl-butyl]pyridine-2-carbonyl]amino]propanoic acid]
32 | 40 | CC(C)CC(c1ccc(C(=O)NCCC(=O)O)cc1)n1cc2c(Cl)c(-c3ccc(C(F)(F)F)cc3)ccc2n1 (stereo not drawn) [Compound #147, 3-(4-(1-(4-Chloro-5-(4-(trifluoromethyl)phenyl)-2H-indazol-2-yl)-3-methylbutyl)benzamido)prop-anoic acid]
33 | 26 | Cc1cc2c(cnn2C(CC(C)C)c2ccc(C(=O)NCCC(=O)O)cc2)cc1-c1ccc(C(F)(F)F)cc1Cl (stereo not drawn) [Compound #94, 3-[[4-[1-[5-[2-Chloro-4-(trifluoromethyl)phenyl]-6-methyl-indazol-1-yl]-3-methyl-butyl]benzoyl]amino]propanoic acid]
34 | 22 | COc1c(-c2ccc(C(F)(F)F)cc2Cl)ccc2nn(C(CC(C)C)c3ccc(C(=O)NCCC(=O)O)cc3)cc12 (stereo not drawn) [Compound #137, 3-(4-(1-(5-(2-Chloro-4-(trifluoromethyl)phenyl)-4-methoxy-2H-indazol-2-yl)-3-methylbutyl)benzamido)propanoic acid]
35 | 19 | Cc1cc(C(F)(F)F)ccc1-c1cc2cn(C(CC(C)C)c3ccc(C(=O)NCCC(=O)O)cc3)nc2cc1C (stereo not drawn) [Compound #54, 3-[[4-[3-Methyl-1-[6-methyl-5-[2-methyl-4-(trifluoromethyl)phenyl]indazol-2-yl]butyl]benzoyl]amino]propanoic acid]
36 | 9 | Cc1cc(C(F)(F)F)ccc1-c1ccc2nn(C(CC(C)C)c3ccc(C(=O)NCCC(=O)O)nc3)cc2c1C (stereo not drawn) [Compound #155, 3-(5-(3-Methyl-1-(4-methyl-5-(2-methyl-4-(trifluoromethyl)phenyl)-2H-indazol-2-yl)butyl)picolinamido)propanoic acid]
